Data from patent US9951021B2, “Compounds for inhibiting c-Myc/Max/DNA complex formation” (NATIONAL CANCER CENTER, priority 2016, dated 2018).
pIC50: −log10 of the molar value.

Tests used:
[1] = tested on: UM-UC-3; assay: Selectivity evaluation, cytotoxicity in UM-UC-3; type: cell-based; conditions: Homo sapiens, UMUC3; UM-UC-3 (malignant), 72 hours, ATP detection
Description: (§1) Commercially available bladder cancer cell lines were treated with trypsin-EDTA and seeded in each well of a 96 well plate, followed by incubation for 24 hours. After incubation, candidate compounds were added to each well at a final concentration of 0 to 2 μM. The compound-treated cells were further incubated for 72 hours. Cell viability was measured using an ATP detection method (CellTiter-Glo® Luminescent Cell Viability Assay, Promega).
(§2) The selectivity of the compounds of the present disclosure to cancer cells was evaluated in the same manner as described in “2. Cell based assay”.
UM-UC-3: human urinary bladder transitional cell carcinoma

[2] = tested on: Mouse; assay: IV and IP single toxicity test; type: in vivo; conditions: for Percentage (deaths), single toxicity evaluation: Mouse
[3] = tested on: 253J; assay: Selectivity evaluation, cytotoxicity in 253J; type: cell-based; conditions: Homo sapiens; 253J (malignant), 72 hours, ATP detection
Description: as §1, §2
253J: human urinary tract transitional cell carcinoma

[4] = target: T1, recombinant c-Myc/Max (Homo sapiens, UniProt P01106+P61244); assay: Electrophoretic mobility shift assay (EMSA): inhibitory activity on DNA binding of recombinant c-Myc/Max; conditions: read-out: protein assay IC50
T1 construct: made in house
T1 sequence (P01106 whole entry): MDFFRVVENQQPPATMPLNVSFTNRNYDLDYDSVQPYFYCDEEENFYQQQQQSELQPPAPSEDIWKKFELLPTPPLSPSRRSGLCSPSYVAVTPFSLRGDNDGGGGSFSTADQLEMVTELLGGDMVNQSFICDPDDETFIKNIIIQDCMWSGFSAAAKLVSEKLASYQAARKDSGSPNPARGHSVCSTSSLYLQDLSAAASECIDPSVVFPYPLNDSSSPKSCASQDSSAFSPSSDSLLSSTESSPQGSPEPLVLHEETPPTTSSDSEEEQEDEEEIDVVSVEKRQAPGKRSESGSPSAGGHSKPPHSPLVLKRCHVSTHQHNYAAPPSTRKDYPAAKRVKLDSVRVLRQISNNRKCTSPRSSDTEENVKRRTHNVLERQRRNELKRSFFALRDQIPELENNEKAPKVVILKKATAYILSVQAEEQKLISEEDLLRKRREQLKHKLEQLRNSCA
T1 sequence (P61244 whole entry): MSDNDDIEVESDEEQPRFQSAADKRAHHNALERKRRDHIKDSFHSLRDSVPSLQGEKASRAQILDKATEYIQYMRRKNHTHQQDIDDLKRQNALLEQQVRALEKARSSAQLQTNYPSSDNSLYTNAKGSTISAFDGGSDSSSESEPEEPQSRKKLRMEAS
In short: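 Protein mixture preincubated 5 min at room temperature, compound in DMSO added for 5 min, then biotinylated annealed E-box DNA for 10 min to equilibrium. Complexes resolved on 8% polyacrylamide in 1×TBE (120 V, 1 h), detected with HRP-streptavidin/ECL; protein-DNA complex ratio from band intensity.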

| Structure (SMILES) | pIC50 [4] | other results |
| --- | --- | --- |
| CC(=O)c1c([S+]([O-])Cc2ccccc2)nc2c(Br)ccc(Cl)c2c1O (stereo not drawn) [Compound 4, 3-acetyl-2-(benzylsulfinyl)-8-bromo-5-chloroquinolin-4(1H)-one] |  | pIC50 [1]: 5.82; deaths ([2]; IV and IP single-dose administration, 40 mpk, 40 mg/kg): No deaths were observed; Percentage (deaths), single toxicity evaluation ([2]; Female, IP 40 mg/kg): 0 (0/2) %; Percentage (deaths), single toxicity evaluation ([2]; Female, IV 40 mg/kg): 0 (0/2) %; Percentage (deaths), single toxicity evaluation ([2]; Male, IP 40 mg/kg): 0 (0/2) %; pIC50 [3]: 5.96 |
| CC(=O)c1c([S+]([O-])Cc2ccc([N+](=O)[O-])cc2)[nH]c2c(Br)ccc(Cl)c2c1=O (stereo not drawn) [Compound 33, 3-acetyl-8-bromo-5-chloro-2-((4-nitrobenzyl)sulfinyl)quinolin-4(1H)-one] | > 6.00 | pIC50 [1]: 5.80; pIC50 [3]: 5.80 |
| O=C(c1ccccc1)c1c([S+]([O-])Cc2ccc(S(F)(F)(F)(F)F)cc2)[nH]c2c(F)ccc(F)c2c1=O (stereo not drawn) [Compound 87, 3-benzoyl-5,8-difluoro-2-((4-(pentafluoro-λ6-sulfanyl)benzyl)sulfinyl)quinolin-4(1H)-one] | > 6.00 |  |
| Cc1cc(C[S+]([O-])c2[nH]c3c(Cl)ccc(Cl)c3c(=O)c2C(=O)c2ccccc2)no1 (stereo not drawn) [Compound 88, 3-benzoyl-5,8-dichloro-2-(((5-methylisoxazol-3-yl)methyl)sulfinyl)quinolin-4(1H)-one] | > 6.00 |  |
| COC(=O)c1ccc(C[S+]([O-])c2[nH]c3c(Cl)ccc(Cl)c3c(=O)c2C(C)=O)o1 (stereo not drawn) [Compound 89, methyl 5-(((3-acetyl-5,8-dichloro-4-oxo-1,4-dihydroquinolin-2-yl)sulfinyl)methyl)furan-2-carboxylate] | > 6.00 |  |
| CC(=O)c1c([S+]([O-])CN2C(=O)c3ccccc3C2=O)[nH]c2c(Cl)ccc(Cl)c2c1=O (stereo not drawn) [Compound 90, 2-(((3-acetyl-5,8-dichloro-4-oxo-1,4-dihydroquinolin-2-yl)sulfinyl)methyl)isoindoline-1,3-dione] | > 6.00 |  |
| COC(=O)c1ccc(C[S+]([O-])c2[nH]c3c(Cl)ccc(Cl)c3c(=O)c2C(C)=O)cc1 (stereo not drawn) [Compound 91, methyl 4-(((3-acetyl-5,8-dichloro-4-oxo-1,4-dihydroquinolin-2-yl)sulfinyl)methyl)benzoate] | > 6.00 |  |
| COc1cccc2[nH]c(SCc3ccc(S(F)(F)(F)(F)F)cc3)c(C(C)=O)c(=O)c12 [Compound 92, 3-acetyl-5-methoxy-2-((4-(pentafluoro-λ6-sulfanyl)benzyl)thio)quinolin-4(1H)-one] | > 6.00 |  |
| COc1cccc2[nH]c([S+]([O-])Cc3ccc(S(F)(F)(F)(F)F)cc3)c(C(C)=O)c(=O)c12 (stereo not drawn) [Compound 93, 3-acetyl-5-methoxy-2-((4-(pentafluoro-λ6-sulfanyl)benzyl)sulfinyl)quinolin-4(1H)-one] | > 6.00 |  |
| COc1cccc2[nH]c([S+]([O-])Cc3cc(C)on3)c(C(C)=O)c(=O)c12 (stereo not drawn) [Compound 94, 3-acetyl-5-methoxy-2-(((5-methylisoxazol-3-yl)methyl)sulfinyl)quinolin-4(1H)-one] | > 6.00 |  |
| Cc1cc(C[S+]([O-])c2[nH]c3c(Br)ccc(Cl)c3c(=O)c2C(=O)C(C)C)no1 (stereo not drawn) [Compound 95, 8-bromo-5-chloro-3-isobutyryl-2-(((5-methylisoxazol-3-yl)methyl)sulfinyl)quinolin-4(1H)-one] | > 6.00 |  |
| Cc1cc(C[S+]([O-])c2[nH]c3c(Br)ccc(Cl)c3c(=O)c2C(=O)C2CC2)no1 (stereo not drawn) [Compound 96, 8-bromo-5-chloro-3-(cyclopropanecarbonyl)-2-(((5-methylisoxazol-3-yl)methyl)sulfinyl)quinolin-4(1H)-one] | > 6.00 |  |
| Cc1cc(C[S+]([O-])c2[nH]c3c(Cl)ccc(Cl)c3c(=O)c2C(=O)C2CC2)no1 (stereo not drawn) [Compound 97, 5,8-dichloro-3-(cyclopropanecarbonyl)-2-(((5-methylisoxazol-3-yl)methyl)sulfinyl)quinolin-4(1H)-one] | > 6.00 |  |
| CC(=O)c1c([S+]([O-])Cc2ccc(C#N)s2)[nH]c2c(Br)ccc(Cl)c2c1=O (stereo not drawn) [Compound 98, 5-(((3-acetyl-8-bromo-5-chloro-4-oxo-1,4-dihydroquinolin-2-yl)sulfinyl)methyl)thiophene-2-carbonitrile] | > 6.00 |  |
| CC(=O)c1c([S+]([O-])Cc2ccc(-n3cccn3)nc2)[nH]c2c(Br)ccc(Cl)c2c1=O (stereo not drawn) [Compound 99, 2-(((6-(1H-pyrazol-1-yl)pyridin-3-yl)methyl)sulfinyl)-3-acetyl-8-bromo-5-chloroquinolin-4(1H)-one] | > 6.00 |  |
| CC(=O)c1c([S+]([O-])Cc2ccc(N)nc2)[nH]c2c(Br)ccc(Cl)c2c1=O (stereo not drawn) [Compound 100, 3-acetyl-2-(((6-aminopyridin-3-yl)methyl)sulfinyl)-8-bromo-5-chloroquinolin-4(1H)-one] | > 6.00 |  |
| O=C(c1c([S+]([O-])Cc2ccc(SC(F)(F)F)cc2)[nH]c2c(Br)ccc(Cl)c2c1=O)C1CC1 (stereo not drawn) [Compound 101, 8-bromo-5-chloro-3-(cyclopropanecarbonyl)-2-((4-((trifluoromethyl)thio)benzyl)sulfinyl)quinolin-4(1H)-one] | > 6.00 |  |
| CC(=O)c1c([S+]([O-])Cc2ccc(C(F)(F)F)nc2C)[nH]c2c(Br)ccc(Cl)c2c1=O (stereo not drawn) [Compound 102, 3-acetyl-8-bromo-5-chloro-2-(((2-methyl-6-(trifluoromethyl)pyridin-3-yl)methyl)sulfinyl)quinolin-4(1H)-one] | > 6.00 |  |
| CC(=O)c1c([S+]([O-])Cc2ccc(NS(C)(=O)=O)cc2)[nH]c2c(Br)ccc(Cl)c2c1=O (stereo not drawn) [Compound 103, N-(4-(((3-acetyl-8-bromo-5-chloro-4-oxo-1,4-dihydroquinolin-2-yl)sulfinyl)methyl)phenyl)methanesulfonamide] | > 6.00 |  |
| CC(=O)c1c([S+]([O-])Cc2ccc(Cl)nc2)[nH]c2c(Br)ccc(Cl)c2c1=O (stereo not drawn) [Compound 104, 3-acetyl-8-bromo-5-chloro-2-(((6-chloropyridin-3-yl)methyl)sulfinyl)quinolin-4(1H)-one] | > 6.00 |  |
| COCCNc1ccc(C[S+]([O-])c2[nH]c3c(Br)ccc(Cl)c3c(=O)c2C(C)=O)cn1 (stereo not drawn) [Compound 105, 3-acetyl-8-bromo-5-chloro-2-(((6-((2-methoxyethyl)amino)pyridin-3-yl)methyl)sulfinyl)quinolin-4(1H)-one] | > 6.00 |  |
| CC(=O)c1c([S+]([O-])Cc2nonc2C)[nH]c2c(Br)ccc(Cl)c2c1=O (stereo not drawn) [Compound 106, 3-acetyl-8-bromo-5-chloro-2-(((4-methyl-1,2,5-oxadiazol-3-yl)methyl)sulfinyl)quinolin-4(1H)-one] | > 6.00 |  |
| CC(=O)c1c([S+]([O-])Cc2cnc3[nH]ccc3c2)[nH]c2c(Br)ccc(Cl)c2c1=O (stereo not drawn) [Compound 107, 2-(((1H-pyrrolo[2,3-b]pyridin-5-yl)methyl)sulfinyl)-3-acetyl-8-bromo-5-chloroquinolin-4(1H)-one] | > 6.00 |  |
